Experimental data: the supplement of paper PMC10307832

How the values were obtained:
Experiment in all cases: relative viability (nuclei count vs DMSO), 5 days (fraction); higher = more cells survive
SGI-1776 + Palbociclib = compound: CN1CCC(CNc2ccc3ncc(-c4cccc(OC(F)(F)F)c4)n3n2)CC1 [SGI-1776] + CC(=O)c1c(C)c2cnc(Nc3ccc(N4CCNCC4)cn3)nc2n(C2CCCC2)c1=O [Palbociclib] (partner 0.5 µM)
In short: (§1)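 Values are medians from duplicate plates. Each reflects relative viability, defined as the nuclei count of treated wells over that of vehicle wells. Lung cancer cell lines in 1536-well plates were pin-tool dosed one day after seeding with one drug alone or with a fixed anchor-drug dose plus five library-drug doses (not always all listed) in √10 steps, then fixed, stained and imaged at 4× after 5 days.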

[1] = compound: C1COCCN1C2=NC(=NC3=C2OC4=C3C=CC=N4)C5=CC(=CC=C5)NC(=O)C6=CN=C(C=C6)N + Cc1nc(Nc2ncc(C(=O)Nc3c(C)cccc3Cl)s2)cc(N2CCN(CCO)CC2)n1 [Dasatinib] (partner 0.075 µM)
In short: as §1

SGI-1776 + Pemetrexed = compound: CN1CCC(CNc2ccc3ncc(-c4cccc(OC(F)(F)F)c4)n3n2)CC1 [SGI-1776] + Nc1nc2[nH]cc(CCc3ccc(C(=O)N[C@@H](CCC(=O)O)C(=O)O)cc3)c2c(=O)[nH]1 [Pemetrexed] (partner 0.2 µM)
In short: as §1

SGI-1776 + Navitoclax = compound: CN1CCC(CNc2ccc3ncc(-c4cccc(OC(F)(F)F)c4)n3n2)CC1 [SGI-1776] + CC1(C)CCC(c2ccc(Cl)cc2)=C(CN2CCN(c3ccc(C(=O)NS(=O)(=O)c4ccc(N[C@H](CCN5CCOCC5)CSc5ccccc5)c(S(=O)(=O)C(F)(F)F)c4)cc3)CC2)C1 [Navitoclax] (partner 0.5 µM)
In short: as §1

| Cell Line | relative viability (SGI-1776 + Palbociclib; first compound 0.08 µM) | relative viability (SGI-1776 + Palbociclib; first compound 0.8 µM) | relative viability (SGI-1776 + Palbociclib; first compound 2.53 µM) | relative viability (SGI-1776 + Palbociclib; first compound 8 µM) | relative viability ([1]; first compound 0.02 µM) | relative viability ([1]; first compound 0.06325 µM) | relative viability ([1]; first compound 0.2 µM) | relative viability ([1]; first compound 0.6325 µM) | relative viability ([1]; first compound 2 µM) | relative viability (SGI-1776 + Pemetrexed; first compound 0.08 µM) | relative viability (SGI-1776 + Pemetrexed; first compound 0.8 µM) | relative viability (SGI-1776 + Pemetrexed; first compound 2.53 µM) | relative viability (SGI-1776 + Pemetrexed; first compound 8 µM) | relative viability (SGI-1776 + Navitoclax; first compound 0.08 µM) | relative viability (SGI-1776 + Navitoclax; first compound 0.8 µM) | relative viability (SGI-1776 + Navitoclax; first compound 2.53 µM) | relative viability (SGI-1776 + Navitoclax; first compound 8 µM) |
| --- | --- | --- | --- | --- | --- | --- | --- | --- | --- | --- | --- | --- | --- | --- | --- | --- | --- |
| 201T | 0.36 | 0.346 | 0.342 | 0.327 | 0.55 | 0.558 | 0.606 | 0.57 | 0.579 | 0.325 | 0.339 | 0.348 | 0.301 | 1.19 | 1.24 | 1.23 | 1.17 |
| A549 |  |  |  |  |  |  |  |  |  |  |  |  |  | 1.24 | 1.29 | 1.27 | 0.77 |
| A-427 | 0.567 | 0.541 | 0.547 | 0.456 | 0.805 | 0.77 | 0.61 | 0.648 | 0.589 | 1.01 | 1.05 | 0.944 | 0.897 | 1.03 | 0.957 | 0.953 | 1.03 |
| ABC-1 | 0.661 | 0.98 | 0.501 | 0.431 | 0.586 | 0.612 | 0.523 | 0.587 | 0.54 |  |  |  |  |  |  |  |  |
| BEN | 0.447 | 0.476 | 0.457 | 0.47 | 0.309 | 0.297 | 0.334 | 0.371 | 0.325 | 0.806 | 0.811 | 0.712 | 0.615 | 0.0663 | 0.049 | 0.0583 | 0.0494 |
| CAL-12T | 0.425 | 0.518 | 0.641 | 0.418 | 0.467 | 0.519 | 0.396 | 0.324 | 0.338 | 1.31 | 1.06 | 1.16 | 1.28 | 1.3 | 1.1 | 1.29 | 1.09 |
| COR-L23 | 0.282 | 0.309 | 0.32 | 0.247 | 0.505 | 0.604 | 0.451 | 0.472 | 0.327 | 0.212 | 0.188 | 0.2 | 0.18 | 1.13 | 1.03 | 1.11 | 0.731 |
| COR-L 105 | 0.477 | 0.388 | 0.396 | 0.355 | 0.307 | 0.363 | 0.22 | 0.308 | 0.284 | 1.06 | 1.14 | 1.11 | 1.09 | 0.799 | 0.86 | 1 | 0.546 |
| Calu-6 |  |  |  |  |  |  |  |  |  |  |  |  |  | 0.922 | 0.909 | 0.856 | 0.626 |
| ChaGo-K-1 | 0.911 | 0.974 | 0.967 | 0.911 | 0.555 | 0.625 | 0.605 | 0.508 | 0.522 | 0.269 | 0.267 | 0.287 | 0.242 | 0.849 | 1.23 | 0.624 | 0.716 |
| EBC-1 |  |  |  |  |  |  |  |  |  |  |  |  |  | 0.458 | 0.292 | 0.289 | 0.144 |
| EKVX | 0.436 | 0.431 | 0.37 | 0.318 | 0.593 | 0.584 | 0.513 | 0.463 | 0.571 | 0.396 | 0.477 | 0.395 | 0.371 | 1.03 | 0.907 | 0.999 | 0.888 |
| EMC-BAC-2 | 0.537 | 0.52 | 0.518 | 0.514 | 0.334 | 0.378 | 0.317 | 0.356 | 0.294 | 0.438 | 0.452 | 0.458 | 0.425 | 1.23 | 1.22 | 1.16 | 1.1 |
| EPLC-272H | 0.32 | 0.336 | 0.354 | 0.226 | 0.295 | 0.359 | 0.267 | 0.309 | 0.219 | 0.423 | 0.362 | 0.351 | 0.246 | 1.15 | 1.15 | 1.25 | 0.969 |
| H3255 | 0.363 | 0.34 | 0.328 | 0.311 | 0.358 | 0.362 | 0.35 | 0.295 | 0.315 | 0.602 | 0.609 | 0.649 | 0.471 | 0.525 | 0.46 | 0.543 | 0.193 |
| HARA | 0.308 | 0.289 | 0.261 | 0.264 | 0.32 | 0.265 | 0.216 | 0.23 | 0.221 | 0.191 | 0.231 | 0.259 | 0.259 | 1.15 | 1.17 | 1.16 | 1.16 |
| HCC-15 | 0.694 | 0.666 | 0.772 | 0.51 | 0.677 | 0.612 | 0.567 | 0.561 | 0.476 | 0.229 | 0.226 | 0.223 | 0.197 | 0.707 | 0.728 | 0.599 | 0.475 |
| HCC-44 | 0.976 | 0.995 | 0.953 | 0.919 |  |  |  |  |  | 0.612 | 0.621 | 0.679 | 0.633 | 0.935 | 0.909 | 1.08 | 0.928 |
| HCC-78 | 0.481 | 0.428 | 0.446 | 0.458 | 0.406 | 0.449 | 0.456 | 0.345 | 0.403 | 0.894 | 0.875 | 0.908 | 0.939 | 0.816 | 0.766 | 0.812 | 0.66 |
| HCC-366 | 0.395 | 0.476 | 0.368 | 0.33 | 0.647 | 0.745 | 0.691 | 0.576 | 0.26 | 0.184 | 0.17 | 0.172 | 0.164 | 1.06 | 0.964 | 1.2 | 1.09 |
| HCC-827 | 0.504 | 0.513 | 0.509 | 0.383 | 0.282 | 0.294 | 0.414 | 0.233 | 0.308 | 0.393 | 0.268 | 0.24 | 0.226 | 1.05 | 1.01 | 1.08 | 0.99 |
